Reference: BindingDB's records for doi:10.1016/j.bmc.2006.09.058 (Purdue University, 2007)

Target: Sodium-dependent serotonin transporter (Homo sapiens, UniProt P31645, W103C)
Assay: Decrease in [3H]5-HT uptake at human SERT W103C mutant transfected in HEK293 cells

Sequence of Sodium-dependent serotonin transporter (P31645 whole entry W103C): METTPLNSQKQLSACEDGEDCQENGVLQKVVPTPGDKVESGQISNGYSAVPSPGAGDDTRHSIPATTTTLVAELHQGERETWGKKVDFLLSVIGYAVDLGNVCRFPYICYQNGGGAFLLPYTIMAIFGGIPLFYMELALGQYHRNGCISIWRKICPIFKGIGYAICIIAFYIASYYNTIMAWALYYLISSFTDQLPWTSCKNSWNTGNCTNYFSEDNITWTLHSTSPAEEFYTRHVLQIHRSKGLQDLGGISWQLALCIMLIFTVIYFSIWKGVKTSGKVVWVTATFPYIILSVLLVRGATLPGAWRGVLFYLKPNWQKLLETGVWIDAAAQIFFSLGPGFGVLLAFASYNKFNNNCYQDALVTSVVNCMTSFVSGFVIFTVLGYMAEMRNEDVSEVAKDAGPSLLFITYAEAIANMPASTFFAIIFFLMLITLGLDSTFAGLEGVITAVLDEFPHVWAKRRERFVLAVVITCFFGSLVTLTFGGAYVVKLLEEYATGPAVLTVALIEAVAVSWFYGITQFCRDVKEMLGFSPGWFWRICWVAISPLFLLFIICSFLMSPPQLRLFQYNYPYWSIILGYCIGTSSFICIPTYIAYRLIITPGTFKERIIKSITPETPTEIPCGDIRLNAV

Structure (SMILES)	EC50 [µM]
C[n+]1ccc(-c2ccc(SS(C)(=O)=O)cc2)cc1	31.6
C[N+](C)(C)CCSS(C)(=O)=O	501
